Experimental data from patent US8053457B2, “3-imidazolyl-indoles for the treatment of proliferative diseases” (Novartis AG, priority 2007, dated 2011).

What was measured:
[1] = molecular target: T1, MDM4 protein (amino acids 2-185) (Homo sapiens, UniProt O15151); test: Time resolved fluorescence energy transfer (TR-FRET) assay, inhibition of p53-Hdm4 interaction; type: binding; details: MDM4-Bio 10 nM, Cy5-p53 peptide 20 nM
T1 construct: MDM4 protein (amino acids 2-185), tagged with a C-terminal Biotin moiety
T1 sequence (O15151 2-185): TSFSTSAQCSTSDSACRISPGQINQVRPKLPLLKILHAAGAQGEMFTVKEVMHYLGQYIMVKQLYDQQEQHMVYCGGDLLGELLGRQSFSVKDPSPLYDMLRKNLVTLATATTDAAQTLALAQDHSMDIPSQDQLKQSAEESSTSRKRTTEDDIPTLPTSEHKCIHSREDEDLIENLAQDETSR
Procedure: Time Resolved Fluorescence Energy Transfer (TR-FRET) Assay
The inhibition of p53-Hdm4 interaction is measured by time resolved fluorescence energy transfer (TR-FRET). Fluorescence energy transfer (or Foerster resonance energy transfer) describes an energy transfer between donor and acceptor fluorescent molecules. For this assay, MDM4 protein (amino acids 2-185), tagged with a C-terminal Biotin moiety, is used in combination with a Europium labeled streptavidin (Perkin Elmer, Inc., Waltham, Mass., USA) serving as the donor fluorophore. The p53 derived, Cy5 labeled peptide Cy5-TFSDLWKLL (p53 aa18-26) is the energy acceptor. Upon excitation of the donor molecule at 340 nm, binding interaction between MDM4 and the p53 peptide induces energy transfer and enhanced response at the acceptor emission wavelength at 665 nm. Disruption of the formation of the p53-MDM4 complex due to an inhibitor molecule binding to the p53 binding site of MDM4 results in increased donor emission at 615 nm. The ratiometric FRET assay readout is calculated from the raw data of the two distinct fluorescence signals measured in time resolved mode (countrate 665 nm/countrate 615 nm×1000).
The test is performed in white 1536w microtiterplates (Greiner Bio-One GmbH, Frickenhausen, Germany) in a total volume of 3.1 μl by combining 100 nl of compounds diluted in 90% DMSO/10% H2O (3.2% final DMSO concentration) with 2 μl Europium labeled streptavidin (final concentration 2.5 nM) in reaction buffer (PBS, 125 mM NaCl, 0.001% Novexin (consists of carbohydrate polymers (Novexin polymers), designed to increase the solubility and stability of proteins; Novexin Ltd., Cambridgeshire, United Kingdom), Gelatin 0.01%, 0.2% Pluronic (block copolymer fromethylenoxide and propyleneoxide, BASF, Ludwigshafen, Germany), 1 mM DTT), followed by the addition of 0.5 μl MDM4-Bio diluted in assay buffer (final concentration 10 nM). Allow the solution to pre-incubate for 15 minutes at room temperature, followed by addition of 0.5 μl Cy5-p53 peptide in assay buffer (final concentration 20 nM). Incubate at room temperature for 10 minutes prior to reading the plate. For measurement of samples, an Analyst GT multimode microplate reader (Molecular Devices) with the following settings is used: Dichroic mirror 380 nm, Excitation 330 nm, Emission Donor 615 nm and Emission Acceptor 665 nm. IC50 values are calculated by curve fitting using XLfit. If not specified, reagents are purchased from Sigma Chemical Co, St. Louis, Mo., USA.

[2] = molecular target: T2, Hdm2 protein (amino acids 2-185) (Homo sapiens, UniProt Q00987); test: Fluorescence polarisation assay, inhibition of p53-Hdm2 interaction; type: binding; details: Hdm2 3 nM, Cy5-labelled p53-derived peptide 1 nM
T2 construct: Hdm2 protein (amino acids 2-185)
T2 sequence (Q00987 2-185): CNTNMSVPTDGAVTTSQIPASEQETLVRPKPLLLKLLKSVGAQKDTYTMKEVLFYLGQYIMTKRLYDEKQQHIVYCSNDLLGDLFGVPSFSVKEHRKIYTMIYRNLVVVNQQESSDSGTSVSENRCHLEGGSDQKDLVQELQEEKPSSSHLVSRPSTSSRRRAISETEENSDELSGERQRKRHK
Procedure: Fluorescence Polarisation Assay
The inhibition of p53-Hdm2 interaction is measured by fluorescence polarization. Fluorescence polarization measures the rotational movement of molecules in a homogeneous suspension. For this assay, Hdm2 protein (amino acids 2-185) is combined with a Cy5-labelled p53-derived peptide optimised for Hdm2 binding (J. Med. Chem. 2000, 43, 3205-3208). Upon excitation of the Cy5 fluorescent ligand with linearly polarized light, the peptide rotates faster and emits light which is perpendicularly polarized. If the peptide is bound by Hdm2, rotation will slow down and the perpendicular component will decrease. Disruption of the formation of the peptide-Hdm2 complex due to an inhibitor molecule binding to the p53 binding site of Hdm2 results in faster rotation of the peptide. The ratiometric polarization assay readout is calculated from the parallel and perpendicular components of the fluorescence light with respect to the polarization of the excitation light.
The test is performed by combining 7 μl compounds diluted in dimethyl sulfoxide (DMSO) (10% final concentration) with 31.5 μl […] (final concentration 3 nM) in reaction buffer (PBS, 0.1% CHAPS, 1 mM DTT (dithiothreitol)). The solution is allowed to preincubate for 5 minutes at room temperature, followed by addition of 31.5 μl peptide in reaction buffer (final concentration 1 nM), and a further 5 minutes of incubation. A final volume of 20 μl (in triplicate) is distributed into small volume black 384-well plates (Greiner Bio-One GmbH, Frickenhausen, Germany). For measurement of samples, an Analyst AD multimode microplate reader (Molecular Devices Corporation, Sunnyvale, Calif., USA) with the following settings is used: Dichroic mirror 650 nm, Excitation 630 nm, Emission 695 nm. Raw values are expressed as percent of DMSO control, where background (reaction buffer with peptide but no Hdm2) is subtracted first from raw values. IC50 values are calculated by curve fitting using XLfit. If not specified, reagents were purchased from Sigma Chemical Co.

Row | IC50 [1] | IC50 [2] | SMILES
1 | 68.3 µM | 7.2 µM | Fc1cc2c(-c3c(-c4ccccc4)ncn3Cc3ccc4cc[nH]c4c3)c[nH]c2cc1Cl [Example 135]
2 | 43.4 µM | 0.64 µM | Oc1cccc(-c2ncn(Cc3ccc(Cl)cc3)c2-c2c[nH]c3cc(Cl)c(F)cc23)c1 [Example 142, 3-[1-(4-Chloro-benzyl)-5-(6-chloro-5-fluoro-1H-indol-3-yl)-1H-imidazol-4-yl]-phenol]
3 | 55.3 µM | 0.11 µM | OCc1cc(Cl)ccc1Cn1cnc(-c2ccccc2)c1-c1c[nH]c2cc(Cl)c(F)cc12 [Example 148]
4 | 54.9 µM | 0.3 µM | O=C(CN1CCN(CCNC(=O)c2[nH]c3cc(Cl)ccc3c2-c2c(-c3ccccc3)ncn2Cc2ccc(Cl)cc2)CC1)Nc1cccnc1 [Example 271]
5 | 63.7 µM | 0.19 µM | O=C(NCCN1CCN(Cc2ccccn2)C1=O)c1[nH]c2cc(Cl)ccc2c1-c1c(-c2ccccc2)ncn1Cc1ccc(Cl)cc1 [Example 328, 6-Chloro-3-[3-(4-chloro-benzyl)-5-phenyl-3H-imidazol-4-yl]-1H-indole-2-carboxylic acid [2-(2-oxo-3-pyridin-2-ylmethyl-imidazolidin-1-yl)-ethyl]-amide]
